From US12187705B2, “Heteroaryl-triazole and heteroaryl-tetrazole compounds as pesticides” (Bayer Aktiengesellschaft, priority 2018, dated 2025) come the findings set out here.

What is called mortality is the share of the test organisms that died. Lower therefore signals more survivors.

Common to all, as to type: in vivo
The subject of one assay is Tetranychus urticae. The experiment in a line: Tetranychus urticae spray test OP-resistant. The conditions noted are these: Tetranychus urticae, foliar, 144 h, French bean leaf disks, after 6 days. The protocol:
Tetranychus urticae—Spray Test OP-Resistant
To produce a suitable preparation of active compound, 1 part by weight of active compound is mixed with the stated amount of solvents and is diluted with water, containing an emulsifier concentration of 1000 ppm, to the desired concentration. Further test concentrations are prepared by dilution with emulsifier containing water.
French bean (Phaseolus vulgaris) leaf disks infected with all instars of the two spotted spidermite (Tetranychus urticae), are sprayed with a preparation of the active ingredient of the desired concentration.
After 6 days mortality in % is determined. 100% means all spider mites have been killed and 0% means none of the spider mites have been killed.

Assay [1] relates to Ctenocephalides felis. The experiment in a line: Ctenocephalides felis oral test. The following applies: Ctenocephalides felis, in Bos taurus, po, 48 h. The gist of the method: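 About 20 adult unfed fleas fed through parafilm on cattle blood containing compound (DMSO concentrate diluted in blood); blood held at 37° C., fleas at room temperature. Mortality in % scored after 2 days (100% = all killed).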

The next assay has as its system Rhipicephalus sanguineus. The experiment in a line: Rhipicephalus sanguineus in-vitro contact test with adult brown dog ticks. The following applies: Rhipicephalus sanguineus; 5 μg/cm^2 (=500 g/ha), after 48 hours; read-out: efficacy (ticks dead or moribund). The gist of the method:
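Compound in acetone coated onto inner walls of glass tubes; 900 ppm gives 5 μg/cm^2. Five to ten adult ticks held 48 h at room temperature, then heated at 45-50° C. up to 5 min; ticks unable to climb away scored dead or moribund, efficacy as % dead/moribund.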

Another assay deals with Boophilus microplus. The experiment in a line: Boophilus microplus injection test. The following applies: Rhipicephalus microplus, 168 h, 20 μg/animal, egg deposition after 7 days, read-out: efficacy (infertile eggs). The gist of the method:
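Engorged adult female ticks, five per dose, received 1 μl of compound in DMSO injected into the abdomen and were kept in a climate chamber. Fertile egg deposition was checked after 7 days, with eggs of unclear fertility held until hatching at about 42 days. Efficacy 100% = all eggs infertile, 0% = all fertile.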

Another assay deals with Diabrotica balteata. Nature of the assay: Diabrotica balteata spray test. The following applies: Diabrotica balteata, 168 h; 160 μg/well, wheat seeds, after 7 days; read-out: efficacy (seedlings grown). The gist of the method: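 Wheat seeds germinated 1 day on agar were sprayed with compound diluted in water with 1000 ppm emulsifier, then infested with 10-20 Diabrotica balteata larvae. Efficacy in % scored after 7 days: 100% = seedlings grown as untreated, uninfected control; 0% = no seedlings grown.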

A further assay concerns Myzus persicae. Nature of the assay: Myzus persicae oral test. The conditions noted are these: 120 h. In short, it runs like this: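 Feeding test: compound diluted in water was combined with IPL41 insect medium (33%+15% sugar) under a parafilm seal. A mixed population of green peach aphids fed through the membrane. Mortality (%) was scored after 5 days.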
For assay [2], the system named is Ctenocephalides felis. Nature of the assay: Ctenocephalides felis in-vitro contact test adult cat flea. The conditions noted are these: Ctenocephalides felis; 5 μg/cm^2 (=500 g/ha), after 48 hours; read-out: efficacy (fleas dead or moribund). The gist of the method:
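Compound in acetone was coated on glass tube walls, giving 5 μg/cm^2 at 900 ppm. 5-10 adult cat fleas were held at room temperature for 48 h, then heat-challenged at 45-50° C. Fleas immotile or uncoordinated were scored dead/moribund, expressed as % efficacy.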

The test system of another assay is Nilaparvata lugens. Nature of the assay: Nilaparvata lugens spray test. The following applies: Nilaparvata lugens, in Oryza sativa, 96 h. In short, it runs like this:
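Rice plants sprayed with compound diluted in water containing 1000 ppm emulsifier, then infested with brown planthopper. Mortality (%) scored after 4 days, 100% meaning all insects killed.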

In another assay the test system is Phaedon cochleariae. Nature of the assay: Phaedon cochleariae spray test. The conditions noted are these: foliar, 168 h, Chinese cabbage leaf disks, after 7 days. In short, it runs like this: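 Chinese cabbage leaf disks sprayed with compound diluted in water containing 1000 ppm emulsifier, then infested with mustard beetle larvae once dry. Mortality in % scored after 7 days (100% = all larvae killed, 0% = none).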

In a further assay the test system is Nezara viridula. Nature of the assay: Nezara viridula spray test. The following applies: in Hordeum vulgare, 96 h. The gist of the method: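 Barley plants infested with stink bug larvae were sprayed with compound diluted in water containing 1000 ppm emulsifier. Mortality (%) was scored after 4 days, 100% meaning all bugs killed.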

On to `CC(c1ncnn1-c1ncccn1)N(CC1CC1)C(=O)c1cncc(S(=O)(=O)C(F)(F)F)c1` (centres unmarked) [Example I-006], for which the mortality at 500 g/ha with Tetranychus urticae stood at 95%; with Nilaparvata lugens it was 100%; in the assay with Phaedon cochleariae, 100%; with Nezara viridula it was 100%. Besides, in the assay on Ctenocephalides felis [1], the mortality at 100 ppm worked out at 100%. Besides, the pest or weed control at 5 µg/cm2, 5 µg/cm2 in the assay with Rhipicephalus sanguineus amounted to 80%; in the assay on Ctenocephalides felis [2], 90%. Also, in the assay on Boophilus microplus, the pest or weed control at 0.02 mg was determined as 100%. The pest or weed control at 160 µg/disc, 160 µg/well in the assay with Diabrotica balteata was found to be 100%. For the same compound, the mortality at 4 ppm with Myzus persicae was 90%. In addition, in the assay with Myzus persicae, the mortality at 20 ppm was 100%.
